{"source": "patent US20050233413A1", "about": "“Neuroprotective polypeptides and methods of use” (priority 2002, published 2005)", "key": {"[1]": {"experiment": "Apparent stability of peptides in the culture medium", "type": "physicochemical", "conditions": "72-hr incubation of 10 μM peptides in the cultured medium; data not shown", "source_text": "The Ser^7 residue plays a role different from that of Ser^14. S7A substitution nullified the action of HN, while Ser^7 racemation had no influence. […] Given the fact that EFLIVIKS or EFLIVKS is the established amino acid sequence to form a dimer and that EFLIVIKS alone had no cytoprotective action, it is most likely that Ser^7 is essential for HN to self-dimerize and that self-dimerization of HN is essential for the action of HN. […] This level of stability alterations could not account for the drastic potentiation of the rescue action by the fusion with EFLIVIKS."}, "[2]": {"system": "Aβ and four FAD genes (V642I-APP, NL-APP, M146L-PS1, and N141I-PS2)", "type": "cell-based", "conditions": "Table 5, marked *", "in_short": "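Rat/mouse hybrid F11 neuronal cells were transfected with FAD genes, then cultured 67 h with or without HN peptides; mortality was scored by Trypan blue exclusion 72 h post-transfection. Mouse primary cortical neurons were preincubated 16 h with HN, exposed to 25 μM Aβ for 72 h, and viability measured by WST-8 (OD450) and Calcein-AM fluorescence.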"}, "[3]": {"biological_target": "T1, HN (self-dimerization) (Homo sapiens, UniProt Q8IVG9)", "T1 construct": "host or cells: chemically synthesised peptide (no expression host)", "experiment": "Dimerization experiment (Ni-bead precipitation of FLAG-tagged peptide by (His)6-tagged peptide)", "type": "binding", "conditions": "excess amounts of competitor", "method": "Synthetic (His)6-tagged HN derivative peptides (1 nmol) was incubated with 20 μl of Ni-NTA agarose (QIAGEN, Hilden, Germany) in a total volume of 0.5 ml of buffer A [20 mM Tris/HCl (pH8.0) and 1 mM DTT] for 1 hr at 4° C. and washed once with buffer B [20 mM Tris/HCl (pH 7.4), 1 mM DTT, and 150 mM NaCl]. Synthetic FLAG-tagged peptides (1 nmol) were mixed with the beads immobilizing (His)6-tagged peptides in a total volume of 0.5 ml of buffer B for 2 hr at 4° C. on a rotating shaker, and washed three times with buffer B. The washed beads were mixed with 20 μl of 2× sampling buffer [100 mM Tris/HCl (pH6.8), 200 mM DTT, 4% (w/v) SDS, 0.2% bromophenol blue, and 20% (v/v) glycerol] and boiled. The supernatant was submitted to Tris/Tricine SDS-PAGE, followed by immunoblotting analysis with 1/5000 anti-FLAG monoclonal antibody M2 (Sigma)."}, "[4]": {"system": "primary cultured neurons treated with 25 μM Aβ1-43", "conditions": "as described previously [16]; read-out: IC50 of the HNG action against Aβ1-43-induced neuronal death; cited from earlier work"}, "[5]": {"system": "F11 cells transfected with V642I-APP, NL-APP, M146L-PS1 or N141I-PS2 cDNA", "type": "cell-based, rat/mouse hybrid", "conditions": "each of V642I-APP, read-out: IC50 of suppression of neuronal cell death by FAD genes", "source_text": "F11 cells, the hybrid of a rat embryonic-day-13 primary cultured primary neuron and a mouse neuroblastoma cell, are one of the best models for primary cultured neurons as they carry representative characteristics of primary neurons, such as generation of action potentials without differentiation by NGF [22]. They have been used in various studies of is neuronal functions. Using these cells, the underlying mechanisms for cytotoxicity by V642I-APP have well been analyzed. Cytotoxicity by V642 mutants of APP has also been confirmed in multiple different systems. F11 cells were grown in Ham's F-12 (GibcoBRL, Gaithersburg, Md.) plus 18% fetal bovine serum (FBS; Hyclone, Logan, Utah) and antibiotics, as described previously. F11 cells (7×10^4 cell/well in a 6-well plate cultured in Ham's F-12 plus 18% FBS for 12-16 hr) were transfected with plasmids encoding FAD genes by lipofection [FAD cDNA 2 μg, LipofectAMINE 4 μl, PLUS reagent 8 μl (GibcoBRL)] in the absence of serum for 3 hr, and were incubated with Ham's F-12 plus 18% FBS for 2 hr. Then, culture media were changed to Ham's F-12 plus 10% FBS with or without HN peptides, and cells were cultured for an additional 67 hr. Seventy-two hr after transfection, cell mortality was measured by Trypan blue exclusion assay, performed as follows. Cells were suspended by pipetting gently, and 50 μl of 0.4% (finally 0.08%) Trypan blue solution (Sigma, St Louis, Mo.) was mixed with 200 μl of the cell suspension at room temperature. Stained cells were counted within 3 min after the mixture with Trypan blue solution."}}, "note": "Where no end group is shown, it is not given here."}
{"sequence": "MAPRGFSCLLLLTGEIDLPVKRRA [HNG, reference compound]", "values": [{"measurement": "amount of peptide relative to the amount at time zero", "setting": "[1]", "result": "about ⅔"}, {"measurement": "Full protection (minimal concentration that exerted full cytoprotection)", "setting": "[2]", "result": "˜10 nM"}, {"measurement": "effect of excess competitor on HN-FLAG precipitation by (His)6-HN", "setting": "[3]", "result": "abolished"}, {"measurement": "IC50", "setting": "[4]", "result": "~0.5", "unit": "nM"}, {"measurement": "IC50", "setting": "[5]", "result": "~0.03", "unit": "nM"}]}
